Reference: ChEMBL document CHEMBL1649565, “Besifloxacin, a novel fluoroquinolone, has broad-spectrum in vitro activity against aerobic and anaerobic bacteria” (Antimicrob Agents Chemother, 2009)
Active and inactive are the calls of the source.

Assays:
Morganella morganii = experiment: Antibacterial activity against Morganella morganii by CLSI M7-A7 method; assay type: functional
Klebsiella pneumoniae = experiment: Antibacterial activity against Klebsiella pneumoniae by CLSI M7-A7 method; assay type: functional
Moraxella catarrhalis = experiment: Antibacterial activity against Moraxella catarrhalis by CLSI M7-A7 method; assay type: functional
[1] = system: Staphylococcus epidermidis; experiment: Antibacterial activity against ciprofloxacin-susceptible and methicillin-resistant Staphylococcus epidermidis by CLSI M100-S18 method; assay type: functional
Pseudomonas aeruginosa = experiment: Antibacterial activity against ciprofloxacin-susceptible Pseudomonas aeruginosa by CLSI M7-A7 method; assay type: functional
Listeria monocytogenes = experiment: Antibacterial activity against Listeria monocytogenes by CLSI M100-S18 method; assay type: functional
Haemophilus influenzae [2] = experiment: Antibacterial activity against ciprofloxacin-susceptible Haemophilus influenzae assessed as percent susceptible isolates by CLSI M7-A7 method; assay type: functional
Staphylococcus hominis = experiment: Antibacterial activity against Staphylococcus hominis by CLSI M100-S18 method; assay type: functional
Proteus mirabilis [3] = experiment: Antibacterial activity against Proteus mirabilis assessed as percent susceptible isolates by CLSI M7-A7 method; assay type: functional
Staphylococcus aureus [4] = experiment: Antibacterial activity against non-ciprofloxacin-susceptible and methicillin-susceptible Staphylococcus aureus assessed as percent susceptible isolates by CLSI M100-S18 method; assay type: functional
Serratia marcescens = experiment: Antibacterial activity against Serratia marcescens by CLSI M7-A7 method; assay type: functional
Streptococcus pyogenes = experiment: Antibacterial activity against Streptococcus pyogenes by CLSI M100-S18 method; assay type: functional
Streptococcus pneumoniae [5] = experiment: Antibacterial activity against levofloxacin-susceptible Streptococcus pneumoniae by CLSI M100-S18 method; assay type: functional
[6] = system: Staphylococcus lugdunensis; experiment: Antibacterial activity against Staphylococcus lugdunensis assessed as percent susceptible isolates by CLSI M100-S18 method; assay type: functional
Enterobacter cloacae [7] = experiment: Antibacterial activity against Enterobacter cloacae by CLSI M7-A7 method; assay type: functional
Streptococcus sp. = experiment: Antibacterial activity against Lancefield Streptococcus sp. group F by CLSI M100-S18 method; assay type: functional
[8] = Antibacterial activity against Lancefield Streptococcus sp. 'group G' by CLSI M100-S18 method; assay type: functional
Klebsiella oxytoca = experiment: Antibacterial activity against Klebsiella oxytoca by CLSI M7-A7 method; assay type: functional
Acinetobacter baumannii = experiment: Antibacterial activity against Acinetobacter baumannii by CLSI M7-A7 method; assay type: functional
[9] = system: Staphylococcus epidermidis; experiment: Antibacterial activity against non-ciprofloxacin-susceptible and methicillin-susceptible Staphylococcus epidermidis by CLSI M100-S18 method; assay type: functional
Streptococcus oralis = experiment: Antibacterial activity against Streptococcus oralis by CLSI M100-S18 method; assay type: functional
Haemophilus influenzae [10] = experiment: Antibacterial activity against ciprofloxacin-susceptible Haemophilus influenzae by CLSI M7-A7 method; assay type: functional
[11] = system: Staphylococcus lugdunensis; experiment: Antibacterial activity against Staphylococcus lugdunensis by CLSI M100-S18 method; assay type: functional
Streptococcus agalactiae = experiment: Antibacterial activity against Streptococcus agalactiae by CLSI M100-S18 method; assay type: functional
[12] = system: Staphylococcus epidermidis; experiment: Antibacterial activity against ciprofloxacin-susceptible and methicillin-resistant Staphylococcus epidermidis assessed as percent susceptible isolates by CLSI M100-S18 method; assay type: functional
Streptococcus equinus = experiment: Antibacterial activity against Streptococcus bovis by CLSI M100-S18 method; assay type: functional
Citrobacter freundii [13] = experiment: Antibacterial activity against Citrobacter freundii by CLSI M7-A7 method; assay type: functional
[14] = system: Acinetobacter calcoaceticus; experiment: Antibacterial activity against Acinetobacter calcoaceticus by CLSI M7-A7 method; assay type: functional
Staphylococcus warneri [15] = experiment: Antibacterial activity against Staphylococcus warneri by CLSI M100-S18 method; assay type: functional
Klebsiella aerogenes = experiment: Antibacterial activity against Enterobacter aerogenes assessed as percent susceptible isolates by CLSI M7-A7 method; assay type: functional
Proteus mirabilis [16] = experiment: Antibacterial activity against Proteus mirabilis by CLSI M7-A7 method; assay type: functional
[17] = system: Staphylococcus saprophyticus; experiment: Antibacterial activity against Staphylococcus saprophyticus assessed as percent susceptible isolates by CLSI M100-S18 method; assay type: functional
[18] = system: Staphylococcus haemolyticus; experiment: Antibacterial activity against Staphylococcus haemolyticus assessed as percent susceptible isolates by CLSI M100-S18 method; assay type: functional
Legionella pneumophila = experiment: Antibacterial activity against Legionella pneumophila by CLSI M7-A7 method; assay type: functional
Haemophilus influenzae [19] = experiment: Antibacterial activity against non-ciprofloxacin-susceptible Haemophilus influenzae by CLSI M7-A7 method; assay type: functional
Enterobacter cloacae [20] = experiment: Antibacterial activity against Enterobacter cloacae assessed as percent susceptible isolates by CLSI M7-A7 method; assay type: functional
Citrobacter freundii [21] = experiment: Antibacterial activity against Citrobacter freundii assessed as percent susceptible isolates by CLSI M7-A7 method; assay type: functional
Streptococcus pneumoniae [22] = experiment: Antibacterial activity against non-levofloxacin susceptible Streptococcus pneumoniae assessed as percent susceptible isolates by CLSI M100-S18 method; assay type: functional
[23] = system: Staphylococcus haemolyticus; experiment: Antibacterial activity against Staphylococcus haemolyticus by CLSI M100-S18 method; assay type: functional
Enterococcus faecium = experiment: Antibacterial activity against vancomycin- resistant Enterococcus faecium by CLSI M100-S18 method; assay type: functional
[24] = system: Staphylococcus epidermidis
Staphylococcus warneri [25] = experiment: Antibacterial activity against Staphylococcus warneri assessed as percent susceptible isolates by CLSI M100-S18 method; assay type: functional
[26] = system: Stenotrophomonas maltophilia; experiment: Antibacterial activity against levofloxacin-susceptible Stenotrophomonas maltophilia by CLSI M7-A7 method; assay type: functional
Staphylococcus aureus [27] = experiment: Antibacterial activity against non-ciprofloxacin-susceptible and methicillin-susceptible Staphylococcus aureus by CLSI M100-S18 method; assay type: functional
Citrobacter koseri = experiment: Antibacterial activity against Citrobacter koseri by CLSI M7-A7 method; assay type: functional
Streptococcus pneumoniae [28] = experiment: Antibacterial activity against levofloxacin susceptible Streptococcus pneumoniae assessed as percent susceptible isolates by CLSI M100-S18 method; assay type: functional
Staphylococcus aureus [29] = experiment: Antibacterial activity against ciprofloxacin-susceptible and methicillin-resistant Staphylococcus aureus assessed as percent susceptible isolates by CLSI M100-S18 method; assay type: functional

N[C@@H]1CCCCN(c2c(F)cc3c(=O)c(C(=O)O)cn(C4CC4)c3c2Cl)C1 [BESIFLOXACIN]
32 µg/mL: MIC90 (Acinetobacter baumannii)
1 µg/mL: MIC50 (Pseudomonas aeruginosa) | MIC90 (Staphylococcus hominis) | MIC90 (Serratia marcescens) | MIC90 (Klebsiella oxytoca) | MIC90 (Staphylococcus warneri [15]) | MIC90 [23] | MIC [26]
inactive: Activity (Haemophilus influenzae [2]) | Activity (Proteus mirabilis [3]) | Activity (Staphylococcus aureus [4]) | Activity [6] | Activity [12] | Activity (Klebsiella aerogenes) | Activity [17] | Activity [18] | Activity (Enterobacter cloacae [20]) | Activity (Citrobacter freundii [21]) | Activity (Streptococcus pneumoniae [22]) | MIC90 [24] | Activity (Staphylococcus warneri [25]) | Activity (Streptococcus pneumoniae [28]) | Activity (Staphylococcus aureus [29])
4 µg/mL: MIC90 (Morganella morganii) | MIC90 (Klebsiella pneumoniae) | MIC90 (Pseudomonas aeruginosa) | MIC90 (Citrobacter freundii [13]) | MIC90 (Staphylococcus aureus [27])
0.015 µg/mL: MIC50 (Haemophilus influenzae [10])
0.03 µg/mL: MIC50 (Moraxella catarrhalis) | MIC90 (Moraxella catarrhalis) | MIC50 [1] | MIC (Streptococcus pyogenes) | MIC50 (Streptococcus pyogenes) | MIC50 (Streptococcus pneumoniae [5]) | MIC50 (Streptococcus sp.) | MIC50 [8] | MIC90 (Haemophilus influenzae [10]) | MIC50 (Legionella pneumophila) | MIC90 (Legionella pneumophila)
2 µg/mL: MIC90 (Enterobacter cloacae [7]) | MIC50 (Haemophilus influenzae [19]) | MIC90 (Haemophilus influenzae [19]) | MIC50 (Enterococcus faecium)
0.25 µg/mL: MIC50 (Klebsiella pneumoniae) | MIC50 (Staphylococcus hominis) | MIC50 (Serratia marcescens) | MIC [9] | MIC50 [9] | MIC50 (Citrobacter freundii [13]) | MIC50 (Proteus mirabilis [16]) | MIC90 (Citrobacter koseri)
8 µg/mL: MIC90 (Enterococcus faecium)
0.06 µg/mL: MIC90 (Streptococcus pyogenes) | MIC90 (Streptococcus pneumoniae [5]) | MIC90 (Streptococcus sp.) | MIC90 [8] | MIC50 (Streptococcus oralis) | MIC50 [11] | MIC50 (Streptococcus agalactiae) | MIC90 (Streptococcus agalactiae) | MIC50 (Streptococcus equinus) | MIC50 (Staphylococcus warneri [15]) | MIC50 (Citrobacter koseri)
16 µg/mL: MIC50 (Acinetobacter baumannii) | MIC90 [14] | MIC90 (Proteus mirabilis [16])
0.12 µg/mL: MIC50 (Morganella morganii) | MIC50 (Listeria monocytogenes) | MIC90 (Listeria monocytogenes) | MIC50 (Enterobacter cloacae [7]) | MIC50 (Klebsiella oxytoca) | MIC90 (Streptococcus oralis) | MIC90 (Streptococcus equinus)
0.5 µg/mL: MIC90 [11] | MIC50 [14] | MIC50 [23] | MIC50 (Staphylococcus aureus [27])
